Data on four compounds can be found in US6444617B1, “Fused-heterocycle dicarboxylic acid diamide derivatives or salts thereof, herbicide and usage thereof” (Nihon Nohyaku Co., Ltd., priority 1998, dated 2002).

Format in all cases: in vivo
Data set [1] relates to bird's eye speedwell (Veronica persica Poir.), Vp. Put plainly: Test Example 3: herbicidal effect on upland weeds before emergence. The settings on record: dosage 5 kg/ha. A digest of the protocol:
(§1)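 Herbicidal activity was rated from kill rate determined 14 days post-spray, the compound having been applied pre-emergence as a liquid agent.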

Data set [2] concerns cleavers (Galium aparine L.), Ga. Described as above. The settings on record: dosage 5 kg/ha. A digest of the protocol:
as §1

Data set [3] deals with barnyard grass (Echinochloa crus-galli Beauv.), Ec. Described as above. The settings on record: dosage 5 kg/ha. Summed up:
as §1

For data set [4], the system named is forxtail grass (Alopecurus aequalis var. amurensis Ohwi), Am. The description is as above. The settings on record: foxtail grass, dosage 5 kg/ha. Summed up: as §1
For data set [5], the system named is cocklebur (Xanthium strumarium L.), Xs. The data set is described as above. The conditions noted are these: dosage 5 kg/ha. A digest of the protocol:
as §1

Data set [6] concerns velvetleaf (Abutilon theophtasti L.), At. The description is as above. The conditions noted are these: dosage 5 kg/ha. Summed up: as §1
The next data set relates to wheat (Wh). Put plainly: Test Example 3: phytotoxicity to upland crop plants, treatment before emergence. The settings on record: dosage 5 kg/ha. A digest of the protocol:
(§2)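 Pre-emergence spray of a liquid preparation at a prescribed compound concentration. Soybean and wheat injury was scored against a phytotoxicity criterion 14 days after treatment, alongside weed control.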

A further data set concerns soybean plant (So). The description is as above. The conditions noted are these: dosage 5 kg/ha. A digest of the protocol:
as §2

For data set [7], the system named is bulrush (Scirpus juncoides Roxb.). The data set is described as follows: Test Example 1: herbicidal effect on paddy field weeds before emergence. The conditions noted are these: Dosage 5 kg/ha. Summed up:
(§3)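 Seeds of both weeds, still ungerminated, in soil pots held under paddy conditions received a set dose of test solution as soil treatment. After twenty-one days, control relative to untreated pots was calculated and rated on a scoring scale.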

Data set [8] deals with barnyard grass (Echinochloa crus-galli Beauv.). The data set is described as above. The settings on record: Dosage 5 kg/ha. Summed up:
as §3

Data set [9] deals with bulrush (Scirpus juncoides Roxb.). The data set is described as follows: Test Example 2: herbicidal effect on paddy field weeds after emergence. The settings on record: Dosage 5 kg/ha; one-leaved stage; 21 days after treatment. Summed up:
(§4)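 Weeds in flooded paddy-soil pots were grown to the one-leaved stage, then the soil was treated with the compound solution at a set dosage.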

Data set [10] concerns monochoria (Monochoria vaginalis Presl). The data set is described as above. The conditions noted are these: Dosage 5 kg/ha; one-leaved stage; 21 days after treatment. Summed up: as §4
Data set [11] has as its system barnyard grass (Echinochloa crus-galli Beauv.). Described as above. The settings on record: Dosage 5 kg/ha; one-leaved stage; 21 days after treatment. A digest of the protocol: as §4
Data set [12] deals with bird's eye speedwell (Veronica persica Poir.), Vp. The data set is described as follows: Test Example 4: herbicidal effect on upland weeds after emergence. The conditions noted are these: dosage 5 kg/ha; sprayed after emergence; judged 14 days after treatment. A digest of the protocol:
(§5)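 Weeds and soybean grown in soil-filled vats to set leaf stages, then sprayed post-emergence with the compound at a prescribed concentration. Weed-killing rate and crop phytotoxicity judged 14 days after treatment.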

Data set [13] deals with cleavers (Galium aparine L.), Ga. Described as above. The conditions noted are these: dosage 5 kg/ha; sprayed after emergence; judged 14 days after treatment. Summed up: as §5
The test system of data set [14] is barnyard grass (Echinochloa crus-galli Beauv.), Ec. Described as above. The settings on record: dosage 5 kg/ha; sprayed after emergence; judged 14 days after treatment. A digest of the protocol:
as §5

Data set [15] relates to forxtail grass (Alopecurus aequalis var. amurensis Ohwi), Am. The data set is described as above. The settings on record: dosage 5 kg/ha; sprayed after emergence; judged 14 days after treatment. A digest of the protocol: as §5
For data set [16], the system named is cocklebur (Xanthium strumarium L.), Xs. Described as above. The conditions noted are these: dosage 5 kg/ha; sprayed after emergence; judged 14 days after treatment. A digest of the protocol:
as §5

Data set [17] has as its system velvetleaf (Abutilon theophtasti L.), At. Described as above. The settings on record: dosage 5 kg/ha; sprayed after emergence; judged 14 days after treatment. A digest of the protocol:
as §5

For a further data set, the system named is wheat. The data set is described as follows: Test Example 4: phytotoxicity to upland crop plants, treatment after emergence. The conditions noted are these: dosage 5 kg/ha, sprayed after emergence, judged 14 days after treatment. A digest of the protocol: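 Upland weeds and crop plants (soybean, wheat) are grown from seed in soil until they reach given leaf stages, then treated by spraying with the compound-containing agent; effects are judged two weeks later.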

Another data set concerns soybean plant. The data set is described as above. The settings on record: dosage 5 kg/ha, sprayed after emergence, judged 14 days after treatment. A digest of the protocol:
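Scores of weed-killing rate, with crop phytotoxicity, come from inspection 14 days after plants in soil vats, grown to specified leaf stages, are sprayed with a formulation holding the compound at a prescribed concentration.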

The structures appear in SMILES notation.

As to `CCCNC(=O)c1nc2c(cc1C(=O)Nc1c(CC)ccc(Cl)c1CC)CCSC2` [compound 534], the “Herbicidal effect Vp” value in [1] and in data set [12] was 5 (Weed-killing rate is 100%.) in each case. Also, the “Herbicidal effect Ga” value in data set [2] and in data set [13] was 5 (Weed-killing rate is 100%.) throughout. Moreover, the “Herbicidal effect Ec” value in [3] and in data set [14] was 5 (Weed-killing rate is 100%.) each time. In addition, the “Herbicidal effect Am” value in data set [4] and in data set [15] was 5 (Weed-killing rate is 100%.) throughout. Also, the “Herbicidal effect Xs” value in data set [5] and in data set [16] was 5 (Weed-killing rate is 100%.) each time. Further, the “Herbicidal effect At” value in data set [6] and in [17] was 5 (Weed-killing rate is 100%.) each time. Also, the “Phytotoxicity Wh” value in the data set on wheat (Wh) and in the data set on wheat was 4 (Crop-killing rate is 90-99%.) each time. The figures for the “Phytotoxicity So” value with soybean plant (So) and with soybean plant were 3 (Crop-killing rate is 70-89%.) and 4 (Crop-killing rate is 90-99%.), respectively. Moreover, in data set [7], the “Pre-emergence treatment Bulrush (herbicidal effect)” value (from here on “Pre-emergence treatment Bulrush”) was 5 (Weed-killing rate is 100%.). The “Pre-emergence treatment Barnyard grass (herbicidal effect)” value (shortened to “Pre-emergence treatment Barnyard grass”) in data set [8] was 5 (Weed-killing rate is 100%.). Moreover, the “Post-emergence treatment Bulrush (herbicidal effect)” value (shortened to “Post-emergence treatment Bulrush”) in data set [9] is on record as 5 (Weed-killing rate is 100%.). Also, the “Post-emergence treatment Monochoria (herbicidal effect)” value (“Post-emergence treatment Monochoria” for short) in data set [10] is listed as 5 (Weed-killing rate is 100%.). In data set [11], the “Post-emergence treatment Barnyard grass (herbicidal effect)” value (shortened to “Post-emergence treatment Barnyard grass”) is 5 (Weed-killing rate is 100%.).

On to `CCCNC(=O)c1nc2c(cc1C(=O)Nc1c(CC)ccc(Cl)c1CC)CSCC2` [compound 558], for which the “Herbicidal effect Vp” value in data set [1] and in data set [12] was 5 (Weed-killing rate is 100%.) in each case. In addition, the “Herbicidal effect Ga” value in data set [2] and in data set [13] was 5 (Weed-killing rate is 100%.) in each case. Moreover, the “Herbicidal effect Ec” value in data set [3] and in data set [14] was 5 (Weed-killing rate is 100%.) in each case. The “Herbicidal effect Am” value in data set [4] and in data set [15] was 5 (Weed-killing rate is 100%.) each time. In addition, the “Herbicidal effect Xs” value in data set [5] and in data set [16] was 5 (Weed-killing rate is 100%.) throughout. Moreover, the “Herbicidal effect At” value in data set [6] and in data set [17] was 5 (Weed-killing rate is 100%.) throughout. The “Phytotoxicity Wh” value in the data set with wheat (Wh) and in the data set with wheat was 5 (Crop-killing rate is 100%.) throughout. The “Phytotoxicity So” value in the data set on soybean plant (So) and in the data set on soybean plant was 5 (Crop-killing rate is 100%.) throughout. In data set [7], the “Pre-emergence treatment Bulrush” value is listed as 5 (Weed-killing rate is 100%.). Also, in data set [8], the “Pre-emergence treatment Barnyard grass” value is 5 (Weed-killing rate is 100%.). Also, in data set [9], the “Post-emergence treatment Bulrush” value is reported as 5 (Weed-killing rate is 100%.). Besides, in data set [10], the “Post-emergence treatment Monochoria” value was 5 (Weed-killing rate is 100%.). The “Post-emergence treatment Barnyard grass” value in data set [11] is recorded as 5 (Weed-killing rate is 100%.).

Take `CCNC(=O)c1nc2occc2cc1C(=O)Nc1c(CC)ccc(Cl)c1CC` [compound 774]: the “Herbicidal effect Vp” value in data set [1] and in data set [12] was 5 (Weed-killing rate is 100%.) in each case. Also, the “Herbicidal effect Ga” value in data set [2] and in [13] was 5 (Weed-killing rate is 100%.) throughout. Besides, the “Herbicidal effect Ec” value in data set [3] and in [14] was 5 (Weed-killing rate is 100%.) throughout. Also, the “Herbicidal effect Am” value in [4] and in [15] was 5 (Weed-killing rate is 100%.) in each case. The “Herbicidal effect Xs” value in data set [5] and in [16] was 5 (Weed-killing rate is 100%.) each time. The “Herbicidal effect At” value in data set [6] and in data set [17] was 5 (Weed-killing rate is 100%.) in each case. Moreover, the “Phytotoxicity Wh” value in the data set on wheat (Wh) and with wheat was 5 (Crop-killing rate is 100%.) each time. Further, the “Phytotoxicity So” value in the data set on soybean plant (So) and in the data set on soybean plant was 4 (Crop-killing rate is 90-99%.) each time. Further, the “Pre-emergence treatment Bulrush” value in data set [7] was 5 (Weed-killing rate is 100%.). The “Pre-emergence treatment Barnyard grass” value in data set [8] was 5 (Weed-killing rate is 100%.). Moreover, the “Post-emergence treatment Bulrush” value in data set [9] is listed as 5 (Weed-killing rate is 100%.). The “Post-emergence treatment Monochoria” value in [10] was 5 (Weed-killing rate is 100%.). In addition, the “Post-emergence treatment Barnyard grass” value in [11] is 5 (Weed-killing rate is 100%.).

On to `CCCNC(=O)c1nc2occc2cc1C(=O)Nc1c(CC)ccc(Cl)c1CC` [compound 775], for which the “Herbicidal effect Vp” value in data set [1] and in data set [12] was 5 (Weed-killing rate is 100%.) in each case. Further, the “Herbicidal effect Ga” value in data set [2] and in data set [13] was 5 (Weed-killing rate is 100%.) throughout. The “Herbicidal effect Ec” value in [3] and in data set [14] was 5 (Weed-killing rate is 100%.) in each case. Further, the “Herbicidal effect Am” value in [4] and in data set [15] was 5 (Weed-killing rate is 100%.) throughout. Moreover, the “Herbicidal effect Xs” value in data set [5] and in [16] was 5 (Weed-killing rate is 100%.) in each case. The “Herbicidal effect At” value in data set [6] and in data set [17] was 5 (Weed-killing rate is 100%.) each time. Further, the “Phytotoxicity Wh” value in the data set on wheat (Wh) and with wheat was 5 (Crop-killing rate is 100%.) in each case. The “Phytotoxicity So” value in the data set on soybean plant (So) and with soybean plant was 5 (Crop-killing rate is 100%.) each time. Besides, the “Pre-emergence treatment Bulrush” value in [7] is 5 (Weed-killing rate is 100%.). The “Pre-emergence treatment Barnyard grass” value in data set [8] was 5 (Weed-killing rate is 100%.). Further, in data set [9], the “Post-emergence treatment Bulrush” value is 5 (Weed-killing rate is 100%.). Further, the “Post-emergence treatment Monochoria” value in data set [10] is given as 5 (Weed-killing rate is 100%.). Also, the “Post-emergence treatment Barnyard grass” value in [11] is on record as 5 (Weed-killing rate is 100%.).
